Our source for the EC50 values is patent publication US12350270B2, “Antimalarial agents” (Merck Sharp & Dohme LLC, priority 2019, dated 2025).

The term EC50 denotes the midpoint of the concentration-response curve. High values mean lower potency in that assay, low ones higher potency in that assay.

The first test has as its system parasites (ring stage, in human red blood cell culture). The test can be described thus: Parasite LDH growth assay (antiparasite potency, Parasite Assay). The format is cell-based, Plasmodium falciparum. The following applies: 0.7% rings, 2% haematocrit, 72 hours at 37° C., LDH readout of parasite growth. The essentials: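 Growth was read by an LDH assay after a freeze–thaw cycle (−80 °C overnight, 4 h thaw at RT). Before that, parasites grew with compound for 72 h at 37 °C under gassed, humidified conditions. The input was a ring-stage culture adjusted to 0.7% parasitemia and 2% haematocrit in serum (5%)/albumax (0.5%)-supplemented RPMI-Hepes.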
Compound `CC1(C)CC(=O)N([C@@H]2CC(C)(C)Oc3ccc(C(=O)N[C@@H]4c5ccccc5CC4(C)O)cc32)C(=N)N1` (single isomer, unassigned) [Example 54B] came in with a 50% effective concentration (EC50) of 160 nM.

The compound `CCC1(CC)CC(=O)N([C@@H]2CCOc3ccc(C(=O)NC4c5cc(F)ccc5OCC4(C)O)cc32)C(=N)N1` (single isomer, unassigned) [Example 226D] registered an EC50 of 1 nM.

The test is the same for the next values; noted with them: Plasmodium falciparum, Erythrocyte, 72 h, 0.7% rings, 2% haematocrit, 72 hours at 37° C., LDH readout of parasite growth.
Turning to `CC[C@@]1(C)CC(=O)N([C@@H]2CCOc3ccc(C(=O)N[C@@H]4c5cc(F)ccc5OC(C)(C)[C@H]4O)cc32)C(=N)N1` [Example 225, (4R)-4-[(4S)-4-ethyl-2-imino-4-methyl-6-oxo-hexahydropyrimidin-1-yl]-N-[(3S,4R)-6-fluoro-3-hydroxy-2,2-dimethyl-chroman-4-yl]chromane-6-carboxamide], a half-maximal response (EC50) required 0.8 nM.

The compound `CCC1(CC)CC(=O)N([C@@H]2CCCc3ccc(C(=O)N[C@H]4CC(C)(C)Oc5ccccc54)cc32)C(=N)N1` [Example 156, (4R)-4-(4,4-diethyl-2-imino-6-oxo-hexahydropyrimidin-1-yl)-N-[(4S)-2,2-dimethylchroman-4-yl]tetralin-6-carboxamide] displayed a concentration giving a half-maximal response (EC50) of 1.1 nM. This EC50 and that of the compound before are within 1.5-fold of each other.

Turning to `CCC1(CC)CC(=O)N([C@@H]2CC3(COC3)Oc3ccc(C(=O)N[C@@H]4c5ccccc5OC(C)(C)[C@H]4O)cc32)C(=N)N1` [Example 24A, (R)-4-(4,4-diethyl-2-imino-6-oxotetrahydropyrimidin-1(2H)-yl)-N-((3S,4R)-3-hydroxy-2,2-dimethylchroman-4-yl)spiro[chromane-2,3′-oxetane]-6-carboxamide], the EC50 is 9.3 nM.

With `CCC1(CC)C[C@@H](N2C(=N)NC(C)(C)CC2=O)c2cc(C(=O)N[C@H]3c4cc(F)ccc4OC(C)(C)[C@@H]3O)ccc2O1` [Example 59A, (R)-2,2-diethyl-N-((3R,4S)-6-fluoro-3-hydroxy-2,2-dimethylchroman-4-yl)-4-(2-imino-4,4-dimethyl-6-oxotetrahydropyrimidin-yl)chromane-6-carboxamide], the midpoint of the response, the EC50, lay at 210 nM.

Turning to `COC1COc2ccc(C(=O)N[C@@H]3c4ccccc4OC[C@@]3(C)O)cc2C1N1C(=N)NC(C)(C)CC1=O` (stereo partly drawn) [Example 186, N-[(3S,4R)-3-hydroxy-3-methyl-chroman-4-yl]-4-(2-imino-4,4-dimethyl-6-oxo-hexahydropyrimidin-1-yl)-3-methoxy-chromane-6-carboxamide], the EC50 came to 70 nM. This EC50 is about 3-fold lower than that of the compound before.

In the case of `CC[C@]1(C)CC(=O)N(C2c3cc(C(=O)N[C@@H]4c5ccccc5OC(C)(C)[C@H]4O)ccc3OCC2(C)OC)C(=N)N1` (stereo partly drawn) [Example 284, 4-[(4R)-4-ethyl-2-imino-4-methyl-6-oxo-hexahydropyrimidin-1-yl]-N-[(3S,4R)-3-hydroxy-2,2-dimethyl-chroman-4-yl]-3-methoxy-3-methyl-chromane-6-carboxamide], the midpoint of the response, the EC50, lay at 8.5 nM.

As to `CC[C@]1(C)CC(=O)N([C@@H]2C[C@@H](C)Oc3ccc(C(=O)N[C@@H]4c5ccccc5C[C@@]4(C)O)cc32)C(=N)N1` [Example 129, (2R,4R)-4-[(4R)-4-ethyl-2-imino-4-methyl-6-oxo-hexahydropyrimidin-1-yl]-N-[(1R,2R)-2-hydroxy-2-methyl-indan-1-yl]-2-methyl-chromane-6-carboxamide], the EC50 was 3.5 nM.

`CCC1(CC)CC(=O)N([C@H]2c3cc(C(=O)N[C@@H]4c5cc(C#N)ccc5OC[C@@]4(C)O)ccc3OC[C@H]2COC)C(=N)N1` [Example 301, (3R,4R)-N-[(3S,4R)-6-cyano-3-hydroxy-3-methyl-chroman-4-yl]-4-(4,4-diethyl-2-imino-6-oxo-hexahydropyrimidin-1-yl)-3-(methoxymethyl)chromane-6-carboxamide] gave an EC50 of 1.8 nM.

`CCC1(CC)C[C@@H](N2C(=N)NC(C)(C)CC2=O)c2cc(C(=O)N[C@@H]3c4ccccc4OC[C@H]3O)ccc2O1` [Example 52A, (R)-2,2-diethyl-N-((3S,4R)-3-hydroxychroman-4-yl)-4-(2-imino-4,4-dimethyl-6-oxotetrahydropyrimidin-1(2H)-yl)chromane-6-carboxamide] returned an EC50 of 14.4 nM.

`CCC1(CC)CC(=O)N([C@@H]2CCS(=O)(=O)c3ccc(C(=O)N[C@@H]4c5ccccc5C[C@@]4(C)O)cc32)C(=N)N1` [Example 260, (4R)-4-(4,4-diethyl-2-imino-6-oxo-hexahydropyrimidin-1-yl)-N-[(1R,2R)-2-hydroxy-2-methyl-indan-1-yl]-1,1-dioxo-3,4-dihydro-2H-thiochromene-6-carboxamide] showed an EC50 of 8.2 nM.

In turn, `CC[C@]1(C)CC(=O)N(C2CC(C)Oc3ccc(C(=O)N[C@@H]4c5ccccc5OC(C)(C)[C@H]4O)cc32)C(=N)N1` (stereo partly drawn) [Example 210, 4-[(4R)-4-ethyl-2-imino-4-methyl-6-oxo-hexahydropyrimidin-1-yl]-N-[(3S,4R)-3-hydroxy-2,2-dimethyl-chroman-4-yl]-2-methyl-chromane-6-carboxamide] gave an EC50 of 195 nM. This EC50 is about 24-fold higher than that of the compound before.

`CCC1(CC)CC(=O)N([C@@H]2CCOc3ccc(C(=O)N[C@@H]4c5ccccc5OC(C)(C)[C@H]4O)nc32)C(=N)N1` [Example 30A, (R)-4-(4,4-diethyl-2-imino-6-oxotetrahydropyrimidin-1(2H)-yl)-N-((3S,4R)-3-hydroxy-2,2-dimethylchroman-4-yl)-3,4-dihydro-2H-pyrano[3,2-b]pyridine-6-carboxamide] yielded an EC50 of 0.8 nM.

Consider `CCC1(CC)CC(=O)N([C@@H]2CCCc3ccc(C(=O)N[C@@H]4c5ccccc5OC(C)(C)[C@H]4O)cc32)C(=N)N1` [Example 201, (4R)-4-(4,4-diethyl-2-imino-6-oxo-hexahydropyrimidin-1-yl)-N-[(3S,4R)-3-hydroxy-2,2-dimethyl-chroman-4-yl]tetralin-6-carboxamide], for which the EC50 is 1.4 nM.

On to `CCC1(CC)CC(=O)N([C@H]2c3cc(C(=O)N[C@@H]4c5ccccc5C(F)(F)[C@H]4O)ccc3O[C@@]2(C)COC)C(=N)N1` [Example 290, (2R,3S)-3-(4,4-diethyl-2-imino-6-oxo-hexahydropyrimidin-1-yl)-N-[(1R,2S)-3,3-difluoro-2-hydroxy-indan-1-yl]-2-(methoxymethyl)-2-methyl-3H-benzofuran-5-carboxamide], for which the EC50 is 0.3 nM.

In turn, `CCC1(CC)CC(=O)N([C@H]2C[C@@H](OC)c3ccc(C(=O)N[C@@H]4c5ccccc5C[C@H]4O)cc32)C(=N)N1` [Example 116, (1R,3S)-3-(4,4-diethyl-2-imino-6-oxo-hexahydropyrimidin-1-yl)-N-[(1R,2R)-2-hydroxyindan-1-yl]-1-methoxy-indane-5-carboxamide] had a half-maximal effective concentration (EC50) of 210 nM.

As to `CCC1(CC)CC(=O)N([C@@H]2C[C@H](OC)c3ccc(C(=O)N[C@@H]4c5ccccc5OC[C@@]4(C)O)cc32)C(=N)N1` [Example 205, (1S,3R)-3-(4,4-diethyl-2-imino-6-oxo-hexahydropyrimidin-1-yl)-N-[(3S,4R)-3-hydroxy-3-methyl-chroman-4-yl]-1-methoxy-indane-5-carboxamide], the response was half-maximal at 2.1 nM (EC50). Against the preceding compound, the EC50 is about 100-fold lower.

`CCC1(CC)CC(=O)N([C@@H]2c3cc(C(=O)N[C@@H]4c5ccccc5OC[C@@]4(C)O)ccc3OC[C@@H]2COC)C(=N)N1` [Example 286, (3S,4S)-4-(4,4-diethyl-2-imino-6-oxo-hexahydropyrimidin-1-yl)-N-[(3S,4R)-3-hydroxy-3-methyl-chroman-4-yl]-3-(methoxymethyl)chromane-6-carboxamide] yielded an EC50 of 240 nM.

As to `CCC1(CC)CC(=O)N([C@@H]2CCCOc3ccc(C(=O)N[C@@H]4c5ccccc5C[C@H]4O)cc32)C(=N)N1` [Example 132, (5R)-5-(4,4-diethyl-2-imino-6-oxo-hexahydropyrimidin-1-yl)-N-[(1R,2R)-2-hydroxyindan-1-yl]-2,3,4,5-tetrahydro-1-benzoxepine-7-carboxamide], a half-maximal effect (EC50) was put at 1.6 nM.

`CCC1(CC)CC(=O)N([C@H]2c3cc(C(=O)N[C@@H]4c5ccccc5C[C@@]4(C)O)ccc3OC2(C)C)C(=N)N1` [Example 163, (3S)-3-(4,4-diethyl-2-imino-6-oxo-hexahydropyrimidin-1-yl)-N-[(1R,2R)-2-hydroxy-2-methyl-indan-1-yl]-2,2-dimethyl-3H-benzofuran-5-carboxamide] gave an EC50 of 8.4 nM.

With `CCC1(CC)CC(=O)N([C@@H]2CC(C)(C)Oc3ccc(C(=O)N[C@@H]4c5ccccc5C[C@H]4O)cc32)C(=N)N1` [Example 35A, (R)-4-(4,4-diethyl-2-imino-6-oxotetrahydropyrimidin-1(2H)-yl)-N-((lR,2R)-2-hydroxy-2,3-dihydro-1H-inden-1-yl)-2,2-dimethylchromane-6-carboxamide], the EC50 came to 2.4 nM.

Take `CCC1(CC)CC(=O)N([C@H]2C[C@H](COCCOCCOCCNC(=O)OC(C)(C)C)Oc3ccc(C(=O)N[C@H]4CC(C)(C)Oc5ccccc54)cc32)C(=N)N1` [Example 313, tert-butyl N-[2-[2-[2-[[(2R,4S)-4-(4,4-diethyl-2-imino-6-oxo-hexahydropyrimidin-l-yl)-6-[[(4S)-2,2-dimethylchroman-4-yl]carbamoyl]chroman-2-yl]methoxy]ethoxy]ethoxy]ethyl]carbamate]: the midpoint of the response, the EC50, lay at 260 nM.

`CC1(C)CC(=O)N([C@@H]2CC(C)(C)Oc3ccc(C(=O)N[C@@H]4c5ccccc5OC(C)(C)[C@H]4O)cc32)C(=N)N1` [Example 47A, (R)-N-((3S,4R)-3-hydroxy-2,2-dimethylchroman-4-yl)-4-(2-imino-4,4-dimethyl-6-oxotetrahydropyrimidin-1(2H)-yl)-2,2-dimethylchromane-6-carboxamide] came in with an EC50 of 4.7 nM.

`CCC1(CC)CC(=O)N([C@@H]2CCc3ccc(C(=O)N[C@@H]4c5ccccc5OC[C@]4(C)O)cc32)C(=N)N1` [Example 122, (3R)-3-(4,4-diethyl-2-imino-6-oxo-hexahydropyrimidin-1-yl)-N-[(3R,4R)-3-hydroxy-3-methyl-chroman-4-yl]indane-5-carboxamide] returned an EC50 of 3.9 nM. The EC50 values of the last two compounds are within 1.5-fold of each other.
